The text below walks through data of US20250197368A1 (priority 2020, published 2025).

In assay [1] the test system is human α3β3γ2 GABAARs. Kind of assay: In vitro electrophysiological recording assay (automated patch-clamp), α3-GABAAR relative efficacy. The class given is cell-based. The following applies: % efficacy normalised to diazepam; GABA EC10-20; concentration generally >= 100 times Ki. The method, then: The efficacy of modulators was evaluated using the automated patch-clamp platforms QPatch16 (Sophion, Copenhagen, Denmark) or SyncroPatch 384PE (Nanion, Germany).
For QPatch electrophysiology testing L(tk^−) cells stably expressing human α1β3γ2, α2β3γ2, α3β3γ2, α5β3γ2 GABAARs were used. HEK293 cells stably expressing human α1β3γ2L, α2β3γ2L, α3β3γ2L and α5β3γ2L GABAARs were used for the SyncroPatch 384PE experiments.
All experiments were carried out at room temperature (20-22° C.) using a standard whole cell procedure and physiological solutions. Gigaseals were formed upon execution of a combined suction/voltage protocol with subsequent increased suction leading to the whole-cell configuration.
The currents recorded were acquired at either 1 KHz or 2 KHz and filtered using a Bessel filter. Whole-cell currents were measured at a holding potential of-65 mV (QPatch) or −80 mV (SyncroPatch).
For QPatch experiments, the extracellular solution contained of: 145 mM NaCl, 4 mM KCl, 1 mM MgCl2, 2 mM CaCl2), 10 mM HEPES, 10 mM D-glucose (pH 7.4), and the intracellular solution consisted of: 96 mM KCl, 28 mM CsCl, 25 mM KOH, 4.3 mM CaCl2), 1.4 mM MgCl2, 10 mM EGTA, 10 mM HEPES, 3 mM MgATP (pH 7.2). The osmolarities of the extracellular and intracellular solutions were 305 and 295 mOsm respectively.
For SyncroPatch experiments, the extracellular recording solution contained: 140 mM NaCl, 4 mM KCl, 2 mM CaCl2), 1 mM MgCl2, 10 mM HEPES, 5 mM glucose (pH 7.4 with NaOH and osmolarity of c. 300-310 mOsm). The intracellular recording solution consisted of: 90 mM KCl, 50 mM KF, 1.5 mM MgCl2, 11.1 mM EGTA and 10 mM HEPES (pH 7.2 with KOH and osmolarity of c. 300 mOsm). 2 mM of NaATP was added to the intracellular solution on the day of testing.
The effects of modulators were evaluated in the presence of a submaximal GABA concentration, giving typically less than 30% activation of the response elicited by a saturating GABA concentration. To check and ensure baseline current stability before compound addition, two to five consecutive applications of GABA EC10-20 separated by wash steps were performed before compound addition. The test compound was applied 1 min at least prior to co-application with GABA EC10-20. Following a further wash step, a saturating concentration of GABA was applied at the end of each recording, allowing the accurate evaluation for each cell of the percentage baseline activation elicited by the submaximal GABA applied.
The compounds were first dissolved in DMSO as a 10 mM stock and then further diluted to the testing concentrations so that the final DMSO concentration in the extracellular recording solution was 0.1% (QPatch) or 0.2% (SyncroPatch).
The % efficacy of modulators was determined from the GABA elicited currents recorded in the presence and absence of the test compound, using the formula:
[((compound peak current−leak)−(GABA peak current-leak))/(GABA peak current−leak)]*100,
where ‘leak’ is the leak baseline current at the holding potential, ‘compound peak current’ is the current elicited by co-application of compound and GABA, and ‘GABA peak current’ is the current elicited by GABA alone at the last GABA application before compound addition. The results were presented as ‘relative efficacy’ for each compound generally at a concentration equal or higher than 100 times their determined Ki. The relative efficacy of a compound was calculated by normalising its % efficacy to the corresponding % efficacy of diazepam that was separately determined.
On the technique in general: The patch-clamp technique gives a direct electrical read-out from membranes.

Assay [2] has as its system rat brain benzodiazepine binding sites on GABAAR. Kind of assay: Rat brain receptor occupancy assay ([3H]flumazenil binding). In kind it is in vivo. The following applies: for occupancy of rat brain GABAA receptors (benzodiazepine binding sites): mean±SEM. Here is the method: The occupancy of rat brain benzodiazepine binding sites on GABAAR by compound was measured by its ability to inhibit the ex vivo binding of [^3H]Ro15-1788 ([^3H] flumazenil) in brain samples from rats dosed with the test compound.
Male Sprague Dawley rats (c. 200-300 g) were used for the studies. All animals were acclimatized 5-7 days before dosing and were handled and weighed prior to treatments.
Rats (3 to 6 per group) were dosed p.o. with either the vehicle or the test compound suspended in vehicle (doses of 0.1 to 10 mg/kg) at a volume of 5 mL per kg of body weight. To block all benzodiazepine binding sites and therefore define the level of non-specific binding of [^3H]Ro15-1788, a separate group of animals received a dose of 5 mg/kg p.o. of bretazenil (5 mL/kg) made up in 70% PEG, 30 minutes before the animals were killed.
At predetermined time intervals, animals were culled via stunning and cervical dislocation. Brain tissues were harvested promptly, and each left and right hemisphere were snap frozen and stored at −80° C.
On the day of the brain samples analysis, each left hemisphere was weighed and homogenized in 8 volumes of ice-cold 10 mM potassium phosphate buffer (pH 7.4). 300 μL of the mixture was further diluted by adding it to a tube containing 1050 μL of assay buffer and [^3H] flumazenil further added to make a total volume of 1500 μL and achieve a final concentration of 4 nM, mixing immediately and incubating on ice.
Following 20 seconds incubation time, the sample was rapidly filtered through Whatman GF/B filter in triplicates (500 μL/filter) using a vacuum filtration manifold. The filters were subsequently washed with 10 mL of ice cold 50 mM Tris buffer (pH 7.4) and then placed into scintillation vials containing scintillation fluid. Filter-bound radioactivity was counted on a TriCarb2900 scintillation counter.
In each experiment, the value of nonspecific binding defined using bretazenil was subtracted from all groups to give values of specific binding.
The percent GABAAR occupancy of the test compound at a specific dose and treatment time was calculated as the percentage by which the specific binding in the vehicle treated group was inhibited by the drug. Therefore, the % occupancy of the modulator in drug-treated animals was expressed as: 100−((Average test compound−Average bretazenil)/(Average vehicle−Average Bretazenil)*100) where ‘average test compound’, ‘average bretazenil’ and ‘average vehicle’ are the average counts in test compound-, bretazenil- and vehicle-treated animals, respectively.

Structures are written as SMILES. “And” between values parts separate entries of the source, which are not always exact repeats. Equal entries are not always repeated.

For the compound `CCCNC(=O)c1c(N)c2cccc(-c3cnccc3OC)c2[nH]c1=O` [Example 17, 4-Amino-8-(4-methoxy-3-pyridyl)-2-oxo-N-propyl-1H-quinoline-3-carboxamide], in assay [1], the “α3-GABAAR Relative Efficacy (vs. Diazepam)” value (“α3-GABAAR Relative Efficacy” below) was found to be 0.42. Further, the “occupancy of rat brain GABAA receptors (benzodiazepine binding sites)” value in assay [2] (10 mg/kg p.o.) is 101+0.5% and 101±0.5%. Further, the “occupancy of rat brain benzodiazepine binding sites, dose dependence” value (“occupancy … dose dependence” for short) in assay [2] (doses 0.1 to 10 mg/kg p.o.) was “dose-dependent”.

Consider `CCCNC(=O)c1c(N)c2cccc(-c3cnc(C)cc3OC)c2[nH]c1=O` [Example 18, 4-Amino-8-(4-methoxy-6-methyl-3-pyridyl)-2-oxo-N-propyl-1H-quinoline-3-carboxamide], for which the “α3-GABAAR Relative Efficacy” value in assay [1] came out at 0.21. Besides, the “occupancy … dose dependence” value in assay [2] (doses 0.3 to 10 mg/kg p.o.) is listed as “dose-dependent”.

On to `CCCNC(=O)c1c(N)c2cccc(-c3nc(C)ncc3F)c2[nH]c1=O` [Example 40, 4-Amino-8-(5-fluoro-2-methyl-pyrimidin-4-yl)-2-oxo-N-propyl-1H-quinoline-3-carboxamide], for which the “α3-GABAAR Relative Efficacy” value in assay [1] is given as 0.31. In addition, the “occupancy of rat brain GABAA receptors (benzodiazepine binding sites)” value in assay [2] (1 mg/kg p.o.) is 97.3±2.0%. In addition, the “occupancy … dose dependence” value in assay [2] (doses 0.1 to 10 mg/kg p.o.) is on record as “dose-dependent”.
